For data set [1] the following is noted: compounded ALA (injection, suppository, topical, troche; intravenous); cited from earlier work.
For data set [2], the system named is post-COVID-19 syndrome patients. The format is in vivo, human.

Each structure is given as a SMILES string. Read-outs that look alike come from different tables or passages of the source.

For `O=C(O)CCCC[C@@H]1CCSS1` [ALA, (R)-5-(1,2-Dithiolan-3-yl)pentanoic acid], the “safety concerns in available clinical reports” value in data set [1] is “no serious safety concerns”.

Turning to `CC[C@H](C)[C@H](NC(=O)[C@H](CO)NC(=O)[C@H](CC(N)=O)NC(=O)[C@H](CC(C)C)NC(=O)[C@H](Cc1ccc(O)cc1)NC(=O)[C@H](CCCCN)NC(=O)[C@H](CCCCN)NC(=O)[C@@H](NC(=O)[C@H](C)NC(=O)[C@H](CCSC)NC(=O)[C@H](CCC(N)=O)NC(=O)[C@H](CCCCN)NC(=O)[C@H](CCCNC(=N)N)NC(=O)[C@H](CC(C)C)NC(=O)[C@H](CCCNC(=N)N)NC(=O)[C@@H](NC(=O)[C@H](Cc1ccc(O)cc1)NC(=O)[C@H](CC(N)=O)NC(=O)[C@H](CC(=O)O)NC(=O)[C@@H](NC(=O)[C@H](Cc1ccccc1)NC(=O)[C@@H](NC(=O)[C@H](C)NC(=O)[C@H](CC(=O)O)NC(=O)[C@H](CO)NC(=O)[C@@H](N)Cc1c[nH]cn1)C(C)C)[C@@H](C)O)[C@@H](C)O)C(C)C)C(=O)N[C@@H](CC(C)C)C(=O)N[C@@H](CC(N)=O)C(N)=O` [Aviptadil], in data set [2] (Example 4, patient), the “blood oxygenation value pO2 at end of treatment” value is 97 mmHg. In addition, the “status at control visit” value in data set [2] (Example 4, patient) was “considered healthy”; in data set [2] (Example 5, patient) it was “considered healthy without any further post-COVID symptoms”. The external oxygen supply entry in data set [2] (Example 4, patient, needed intermitted oxygenation before) was “off external oxygen supply”. Also, the “blood oxygenation value pO2 at room air” value in data set [2] (Example 4, patient, pO2 92 mmHg before) came to 96 mmHg. The “breathing at end of treatment” value in data set [2] (Example 4, patient, severe difficulties to breath before) is recorded as “breathed normally”; in data set [2] (Example 5, patient) it was “breathed normally”. In addition, the “blood oxygenation value pO2 at room air at end of treatment” value in data set [2] (Example 5, patient, pO2 93 mmHg before) came out at 98 mmHg. Also, the “ability to work at end of treatment” value in data set [2] (Example 5, patient, unable to work due to extreme fatigue and cough before) is “returned to their professional work”.

The values are drawn from US20240181014A1 (priority 2021, published 2024).
